Source: patent US10034462B2, “Animal model of nash-induced hepatocellular carcinoma and methods for developing specific therapeutics” (THE REGENTS OF THE UNIVERSITY OF CALIFORNIA, priority 2015, dated 2018)

Tested on: WT HcPC-transplanted MUP-uPA mice
Test: Effect of TNF antagonist on HFD-induced acceleration of tumor growth in HcPC-transplanted MUP-uPA mice
Assay type: in vivo, mouse
Conditions: HFD for 5 months; 5 mg/kg i.p. three times a week during the last 7 weeks, vs vehicle
Excerpt: FIGS. 13A-13J are pictorial and graphical diagrams showing analyses of HcPC transplanted MUP-uPA mice. […] Data are means±S.D. (n=3 per group). […] FIGS. 13C-13F show no differences in the severity of NASH and TNF expression in the background liver of MUP-uPA mice transplanted with either WT and Tnfr1^−/− HcPC. Body weight (FIG. 13C), serum ALT (FIG. 13D), expression of TNF mRNA in non-tumor tissues (FIG. 13E), liver steatosis (FIG. 13F) and fibrosis (FIG. 13G) in MUP-uPA mice transplanted with either WT or Tnfr1^−/− HcPC and kept on LFD or HFD are shown (scale bar=100 μm). Data are expressed as means±S.D. (n=10-11 per group). *p<0.05. […] 5 mg/kg etanercept or vehicle control was i.p. injected three times a week during the last 7 weeks. Representative images of livers and maximal tumor sizes are shown. Data are expressed as means±S.E.M. (control, n=10; etanercept, n=12). […] HcPC-transplanted Tnfr1^−/−/MUP-uPA mice were divided into two groups that were fed with either LFD or HFD, and 5 months later tumorigenesis was assessed. Representative images of livers and maximal tumor sizes are shown. Data are expressed as means±S.E.M. (n=10 per group).
DEN (Sigma) was i.p. injected into male mice (25 mg/kg) on postnatal day 14. After 5 months, HcPCs were isolated as described and transplanted into 4 weeks old MUP-uPA (He et al., 2013). […]

Question: For Etanercept, which “HCC growth (maximal tumor size)” value is on record?
Answer: significantly suppressed
